In patent US20230047208A1, “RNA Splicing Modulation” (The General Hospital Corporation, priority 2020, published 2023):

Assays:
ELP1 protein = assay: In vivo ELP1 protein quantification (ELP1-HTRF) in TgFD9 mouse tissues; set-up: species or system TgFD9 transgenic mice; settings: brain, liver, kidney, heart and skin; TgFD9 mice, oral gavage once daily for 7 days, 10-100 mg/kg
Experimental: FIGS. 7A-7G show the relative expression of full-length (FL) and Δ20 ELP1 mRNA (left panel), and ELP1 protein quantification (right panel) in brain (FIG. 7A) and liver (FIG. 7B) after oral doses of Compound (I) ranging from 10 to 100 mg/kg in adult transgenic TgFD9 mouse (n=4-6 mice in each treatment group). Comparisons were done within the same group, against the vehicle-treated mice. In the figure, *p<0.05; **p<0.01; ***p<0.001.
FIGS. 7C-E show the relative expression of full-length (FL) and Δ20 ELP1 mRNA (left graphs), and ELP1 protein quantification (right graphs) in kidney (FIG. 7C), heart (FIG. 7D) and skin (FIG. 7E) after oral doses of Compound (I) ranging from 10 to 100 mg/kg in adult transgenic TgFD9 mouse (n=4-6 mice in each treatment group). […] The levels of compound were measured using mass spectrometry. […]
Compound (I) was evaluated in vivo to determine whether splicing correction can lead to a concomitant increase in ELP1 protein. […]
Tissue samples were collected, snap frozen in liquid nitrogen, weighed, and homogenized on the TissueLyzer II (Qiagen) in RIPA buffer (Tris-HCl 50 mM, pH 7.4; NaCl 150 mM; NP-40 1%; sodium deoxycholate 0.5%; SDS 0.1%) containing a cocktail of protease inhibitors (Roche) at a tissue weight to RIPA buffer volume of 50 mg/mL. […] Fluorescence was measured at 665 nm and 620 nm on an EnVision multilabel plate reader (Perkin Elmer). […]

MAPT exon 10 = assay: MAPT minigene exon 10 splicing in transfected cell lines; type: cell-based; settings: 60 μM, 24 hours, MAPT minigenes, all three mutations tested
Source text: FIGS. 4C-4F Upper row: The sequences at the 5′ splice site of Exon X in patient cells and minigene constructs are shown (FIGS. 4C-4F). The sequences around the 5′ splice site of Exon X are shown in LOGO plots, with the closely matched CNN motifs indicated beneath the plots. […] Middle row: RT-PCR experiments validated treatment responses in patient cell lines carrying specific splice site mutations. The upper bands indicate the isoform in which the middle Exon X is included while the lower bands indicate the isoform in which the middle Exon X is skipped. Each set of gels is one of the triplicates used to generate the bar plots beneath. […] The statistical significance, as shown in FIGS. 4C-4F, was determined via two-tailed, unpaired Student's test: *p<0.05; **p<0.01; ***p<0.001.
In another example from Table 18, several MAPT minigenes encompassing exons 9 to 11 and flanking exon 10 intronic sequences, with the three mutations listed in Table 17: c.1866+3 G>A, c.1865 G>A or c.1788 T>G were prepared. These mutations were predicted by SpliceA1 to promote inclusion of MAPT exon 10. […] An increase in MAPT exon 10 inclusion is responsible for familial frontotemporal dementia and Parkinsonism linked to chromosome 17 (FTDP-17, MIM #600274). […]

## Clc1nc(NCc2ccncc2)c2cc[nH]c2n1 [Compound (I), 2-chloro-N-(pyridin-4-ylmethyl)-7H-pyrrolo[2,3-d]pyrimidin-4-amine]
ELP1 protein
  increase in functional ELP1 protein: at least a two-fold increase
MAPT exon 10
  exon 10 splicing: significantly promoted exon 10 exclusion
